From ChEMBL document CHEMBL1201862, “PubChem BioAssay data set” (2004)
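Cells were grown in 96-well plates and exposed to each compound for 48 hours at five concentrations; endpoints were interpolated linearly between bracketing concentrations, or set to the highest concentration if not reached. The concentration for 50% growth inhibition is given as GI50.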 Active and inactive are the calls of the source. Cut-off read from the data, not from the text of the source: active = GI50 up to about 1.1 µM and inactive = higher.

Legend:
Experiment in all cases: inhibition of tumour cell growth, NCI panel, 48 h
A498 = tested on: A498
HT-29 = tested on: HT-29
OVCAR-8 = tested on: OVCAR-8
SK-MEL-5 = tested on: SK-MEL-5
EKVX = tested on: EKVX
UACC-62 = tested on: UACC-62
MDA-MB-231 = tested on: MDA-MB-231
UO-31 = tested on: UO-31
COLO 205 = tested on: COLO 205
HOP-92 = tested on: HOP-92
M14 = tested on: M14
SK-MEL-28 = tested on: SK-MEL-28
A549 = tested on: A549
SK-OV-3 = tested on: SK-OV-3
K562 = tested on: K562
HCC 2998 = tested on: HCC 2998
KM12 = tested on: KM12
T47D = tested on: T47D
IGROV-1 = tested on: IGROV-1
DMS-273 = tested on: DMS-273

| SMILES | GI50 (A498) | GI50 (HT-29) | GI50 (OVCAR-8) | GI50 (SK-MEL-5) | GI50 (EKVX) | GI50 (UACC-62) | GI50 (MDA-MB-231) | GI50 (UO-31) | GI50 (COLO 205) | GI50 (HOP-92) | GI50 (M14) | GI50 (SK-MEL-28) | GI50 (A549) | GI50 (SK-OV-3) | GI50 (K562) | GI50 (HCC 2998) | GI50 (KM12) | GI50 (T47D) | GI50 (IGROV-1) | GI50 (DMS-273) |
| --- | --- | --- | --- | --- | --- | --- | --- | --- | --- | --- | --- | --- | --- | --- | --- | --- | --- | --- | --- | --- |
| CCN1C(NCCO)=NS(=O)(=O)c2ccccc21 | > 100 µM (inactive) | > 100 µM (inactive) | > 100 µM (inactive) | > 100 µM (inactive) | > 100 µM (inactive) | > 100 µM (inactive) | > 100 µM (inactive) | > 100 µM (inactive) | > 100 µM (inactive) | > 100 µM (inactive) | > 100 µM (inactive) | > 100 µM (inactive) | > 100 µM (inactive) | > 100 µM (inactive) | > 100 µM (inactive) | > 100 µM (inactive) | > 100 µM (inactive) | > 100 µM (inactive) | > 100 µM (inactive) |  |
| CC1(C)CC2=C(Sc3ccccc3N2)C(=O)C1C(=O)C(=O)Nc1cccc([N+](=O)[O-])c1 (stereo unspecified) | > 100 µM (inactive) | > 100 µM (inactive) | > 100 µM (inactive) | > 100 µM (inactive) | > 100 µM (inactive) | 98.2 µM (inactive) | 99.3 µM (inactive) | > 100 µM (inactive) | > 100 µM (inactive) | > 100 µM (inactive) | > 100 µM (inactive) | > 100 µM (inactive) | > 100 µM (inactive) | > 100 µM (inactive) | 66.8 µM (inactive) | > 100 µM (inactive) | 44 µM (inactive) | > 100 µM (inactive) | > 100 µM (inactive) |  |
| CC(C)(C)OC(=O)Cn1ncn(NC(=O)Cc2ccccc2)c1=O | > 10 µM (inactive) | > 10 µM (inactive) | > 10 µM (inactive) | > 10 µM (inactive) | > 10 µM (inactive) | > 10 µM (inactive) | > 10 µM (inactive) | > 10 µM (inactive) | > 10 µM (inactive) | > 10 µM (inactive) | > 10 µM (inactive) | > 10 µM (inactive) | > 10 µM (inactive) | > 10 µM (inactive) | > 10 µM (inactive) | > 10 µM (inactive) | > 10 µM (inactive) | > 10 µM (inactive) | > 10 µM (inactive) |  |
| Oc1nc2cc(Cl)ccc2nc1/C(=N\Nc1ccccc1)C(O)c1ccc2c(c1)OCO2 (stereo unspecified) | > 100 µM (inactive) | > 100 µM (inactive) | > 100 µM (inactive) | > 100 µM (inactive) | > 100 µM (inactive) | > 100 µM (inactive) | > 100 µM (inactive) | > 100 µM (inactive) | > 100 µM (inactive) | > 100 µM (inactive) | > 100 µM (inactive) | > 100 µM (inactive) | > 100 µM (inactive) | > 100 µM (inactive) | > 100 µM (inactive) | > 100 µM (inactive) | > 100 µM (inactive) | 72.8 µM (inactive) | > 100 µM (inactive) |  |
| CC1=NN(c2nc(N)nc(CCl)n2)CC1 | 42.3 µM (inactive) | 30.4 µM (inactive) | 20.8 µM (inactive) | 14.8 µM (inactive) | 16.1 µM (inactive) | 15.2 µM (inactive) | 40 µM (inactive) | 7.76 µM (inactive) | 18.5 µM (inactive) | 19.3 µM (inactive) | 25 µM (inactive) | 22.8 µM (inactive) | 57.7 µM (inactive) | 36.6 µM (inactive) | 18.2 µM (inactive) | 31.2 µM (inactive) | 16.4 µM (inactive) | 74.8 µM (inactive) | 7.14 µM (inactive) |  |
| CCc1cc2c(O)c(c1)Cc1cc(CC)cc(c1O)Cc1cc(CC)cc(c1O)Cc1cc(CC)cc(c1O)Cc1cc(CC)cc(c1O)Cc1cc(CC)cc(c1O)Cc1cc(CC)cc(c1O)C2 |  | > 100 µM (inactive) | > 100 µM (inactive) | > 100 µM (inactive) | > 100 µM (inactive) | > 100 µM (inactive) |  | > 100 µM (inactive) | > 100 µM (inactive) | 44 µM (inactive) | > 100 µM (inactive) | > 100 µM (inactive) | > 100 µM (inactive) |  | > 10 µM (inactive) | > 100 µM (inactive) | > 100 µM (inactive) |  | > 100 µM (inactive) | > 100 µM (inactive) |
| CCc1c(Cl)c(C)cc(O)c1Cl | 18.8 µM (inactive) | 27.5 µM (inactive) | 44.3 µM (inactive) | 15.3 µM (inactive) | 36.2 µM (inactive) | 32.6 µM (inactive) | 40.7 µM (inactive) | 23.7 µM (inactive) | 43.7 µM (inactive) | 23.2 µM (inactive) | 34.7 µM (inactive) | 58.3 µM (inactive) | 44.4 µM (inactive) | > 100 µM (inactive) | 33.7 µM (inactive) | 1.71 µM (inactive) | 22.6 µM (inactive) | 26.8 µM (inactive) | 51.1 µM (inactive) |  |
| O=C1OC(=O)C2CCCC3CCCC1C32 (stereo unspecified) | > 100 µM (inactive) | > 100 µM (inactive) | > 100 µM (inactive) | > 100 µM (inactive) | > 100 µM (inactive) | > 100 µM (inactive) | > 100 µM (inactive) | > 100 µM (inactive) | > 100 µM (inactive) | > 100 µM (inactive) | > 100 µM (inactive) | > 100 µM (inactive) | > 100 µM (inactive) | > 100 µM (inactive) | > 100 µM (inactive) | > 100 µM (inactive) | > 100 µM (inactive) | > 100 µM (inactive) | > 100 µM (inactive) |  |
| CC1C(=O)O[B-]2(c3ccccc3)Oc3ccccc3C=[N+]12 (stereo unspecified) | > 100 µM (inactive) | > 100 µM (inactive) | > 100 µM (inactive) | > 100 µM (inactive) | > 100 µM (inactive) | > 100 µM (inactive) | > 100 µM (inactive) | > 100 µM (inactive) | > 100 µM (inactive) | 31.3 µM (inactive) | > 100 µM (inactive) | > 100 µM (inactive) | > 100 µM (inactive) | > 100 µM (inactive) | > 100 µM (inactive) | > 100 µM (inactive) | > 100 µM (inactive) | > 100 µM (inactive) | > 100 µM (inactive) |  |
| CN(C)CCn1c(=O)c2ccc3c4c(nn3CCN(C)C)c3cc(N)ccc3n(c1=O)c24 | 0.061 µM (active) | < 0.01 µM (active) | 0.0238 µM (active) | 0.0516 µM (active) | 0.0507 µM (active) | 0.0902 µM (active) | < 0.0313 µM (active) | < 0.0132 µM (active) | < 0.0239 µM (active) | 0.191 µM (active) | 0.0259 µM (active) | 0.0646 µM (active) | < 0.01 µM (active) | < 0.0211 µM (active) | < 0.0133 µM (active) | < 0.01 µM (active) | < 0.0196 µM (active) | 0.0312 µM (active) | < 0.015 µM (active) |  |
| CC1(O)CCC(C(C)(C)O)CC1 (stereo unspecified) [TERPIN] | > 100 µM (inactive) | > 100 µM (inactive) | > 100 µM (inactive) | > 100 µM (inactive) | 0.505 µM (active) | > 100 µM (inactive) | > 100 µM (inactive) | > 100 µM (inactive) | > 100 µM (inactive) | > 100 µM (inactive) | > 100 µM (inactive) | > 100 µM (inactive) | > 100 µM (inactive) | > 100 µM (inactive) | > 100 µM (inactive) | > 100 µM (inactive) | > 100 µM (inactive) | > 100 µM (inactive) | 16.1 µM (inactive) |  |
